According to US20070010459A1, “Application of asiatic acid and its derivatives to treat pulmonary fibrosis” (priority 2005, published 2007):
≈ marks a conversion by molar mass, not a printed value.

Columns and labels:
[1] = system: primary culture of mice fibroblast; test: bFGF-stimulated proliferation of primary fibroblast culture; type: cell-based; conditions: tested at 25, 12.5, 6.25, 3.125 or 1.56 μg
Experimental: Using bFGF (0.5 µg/ml), the proliferation of primary culture of mice fibroblast with the presence of asiaticoside or asiatic acid at 25, 12.5, 6.25, 3.125 or 1.56 μg respectively was assessed.

[2] = system: pulmonary fibrosis induced by bleomycin in rat; test: Asiatic acid in bleomycin-induced pulmonary fibrosis rat model; type: in vivo, SD male rats; conditions: for Lung CT scanning results: after 28 days; for Lung Weight: mean
Excerpt: The pulmonary fibrosis animal model was induced by bleomycin in rat according to the methods described by Lazo J S, Hoyt D G, Sebti S M, Pitt B R. in Pharmacol Ther. 1990: 47:347-58. In this article, praquat, bleomycin and amiodrone are three routinely used chemical agent to induce lung fibrosis is rodents, e.g. mice, rat and Chinese hamsters as well as primates, e.g. baboon and cynomolgous monkey etc. there are also reports describing using rabbit or dog as model animal for such study. Different groups were able to generate lung fibrosis in animal models through different administration routes. For example, 3 various pulmonary fibrosis animal models using Co^60 to radiate rat, bleomycin or CCl4 injection into abdominal cavity of mice or rat respectively were generated. […] Specifically, diffusive stromal lung fibrosis model induced by tracheal bleomycin dripping is the most commonly used animal model. The advantage of this method is that the model can be obtained with once bleomycin dripping without repeated venous or abdominal injections, therefore limiting the influences to other organs caused by systematic administrations. It also lowers the experimental cost. The development of pulmonary fibrosis from alveolitis can be observed in 4 weeks, which is very similar to the pulmonary fibrosis pathological development in human being.
1. Animal: SD male rats with weight raging between 200-250 g, purchased from SLAC.
3. Dosage: Asiatic acid, 3, 9, […], po for 28 days.
Male SD rats were lay down flat on operating table and anesthetize with 3% Secobarbital. The trachea was exposed after sterilization of cervical part with alcohol. The needle was then inserted into tracheal cartilage interspace. Bleomycin at 5 mg/kg was dipped in. Afterwards, the rats were reared to evenly distribute bleomycin in the lung. The trachea was then sutured. […] The regimen was initiated on the second day. Sham-operated and untreated group received saline. After 28 days of treatment, lung weight, hydroyproline content, pathological section and CT scan were measured or conducted.
After 28 days on asiatic acid, rats were sacrificed and dissected. The body and lung weight were measured respectively and used to calculate lung weigh coefficient.
After 28 days on Asiatic acid, hydroxyproline content in lung was measured. The results are as follows:
After 28 days on asiatic acid, lung CT scans were performed to each group of experimental rats.
After 28 days on asiatic acid, the rats were sacrificed and dissected. Both lungs were harvested. The specimen were embedded and fixed then subjected to HE staining. The focus of infection were observed under microscope with ⅓, ⅔ and 3/3 Vf*10 to conduct semi-quantative analysis.

[3] = background statement, see U.S. Pat. No. 6,417,349; cited from earlier work
[4] = Pharmacokinetics, tissue distribution and excretion of asiaticoside; type: in vivo, rats; conditions: rat, in vivo, 100 mg/kg
Experimental: Three doses of asiaticoside (10, 33, 100 mg/kg) were gavaged to rats (n=6) and canines (n=4). After dosing, blood was sampled up to 120 or 216 hours in rats and canines respectively. Tissue distribution and excretion studies in rats were carried out with the highest dose.
The respective asiaticoside and asiatic acid in the same bio-matrix were detected by LC/MS/MS and GC/MS. Because the secondary peak resembled a plasma concentration-time profile in both rat and canine rather than conventional compartment fitting, statistical moment analysis was used in calculating pharmacokinetic parameters. […] In addition to the targeted organ, both asiaticoside and asiatic acid were distributed in some other organs, which could be the sign to expand clinical indications.

[5] = system: rats with pulmonary fibrosis induced by bleomycin; test: Pharmacodynamics of asiaticoside in rats with pulmonary fibrosis induced by bleomycin; type: in vivo
Experimental: The rats with lung fibrosis were induced by bleomycin through trachea administration and then treated with asiaticoside. […] The study regimen lasted for 28 days. The lung weight coefficient and hydroyproline (HXP) content were measured on day 2 and 8 after the formation of animal model. CT scan, pathology and serum ECM content measurements were conducted on day 14, 21 and 28 days respectively.

[6] = system: radiation pneumonia and subsequent pulmonary fibrosis induced by Cobalt-60 radiation; test: Pharmacodynamics of asiaticoside in radiation pneumonia induced by Cobalt-60 radiation; type: in vivo, rats; parameters: Type IV (collagen content comparison, serum ECM) / Laminin (serum ECM) / Hyaluronic Acid (serum ECM): unit not given here
Experimental: Radiation pneumonia and subsequent pulmonary fibrosis in rats was induced by Cobalt-60 radiation. The efficacies were assessed by the lung weight coefficient, HXP content, serum ECM measurement, CT scan and pathological examinations.

[7] = first experiment, asiatic acid high dose 27 mg/kg po 28 days
[8] = first experiment, asiatic acid low dose 3 mg/kg po 28 days
[9] = first experiment, asiatic acid medium dose 9 mg/kg po 28 days
[10] = second experiment, asiatic acid high dose 27 mg/kg po 28 days
[11] = second experiment, asiatic acid low dose 3 mg/kg po 28 days
[12] = second experiment, asiatic acid medium dose 9 mg/kg po 28 days
[13] = third experiment, asiatic acid high dose 27 mg/kg po 28 days
[14] = third experiment, asiatic acid low dose 3 mg/kg po 28 days
[15] = third experiment, asiatic acid medium dose 9 mg/kg po 28 days
[16] = dexamethasone 0.6 mg/kg daily oral, 28 days
[17] = first experiment, dexmethasone 0.6 mg/kg po 28 days
[18] = second experiment, dexmethasone 0.6 mg/kg po 28 days
[19] = third experiment, dexmethasone 0.6 mg/kg po 28 days

With C[C@H]1[C@H](C)CC[C@]2(C(=O)O)CC[C@]3(C)C(=CC[C@@H]4[C@@]5(C)C[C@@H](O)[C@H](O)[C@@](C)(CO)[C@@H]5CC[C@]43C)[C@H]12 [Asiatic acid, asiatic acid] the IC50 ([1]; Mus musculus, Fibroblast, bFGF, read-out: IC50, growth inhibition of fibroblast treated with bFGF) was 137 mg/L (≈ 280 µM), the “Inhibitory activity on fibroblast proliferation” value ([1]; bFGF 0.5 g/ml) was “growth inhibitory roles to fibroblast treated with bFGF to certain extent” and the “CT: therapeutic effect in acute phase of pulmonary fibrosis” value ([2]; acute phase) was “didn't display any therapeutic effects”. For the same compound, the “Lung CT scanning results” value ([2]; asiatic acid high dose 27 mg/kg po) was “Light glass infiltration, part of lobules consolidates”, the “Lung CT scanning results” value ([2]; asiatic acid low dose 3 mg/kg po) was “Consolidation in lobules, bronchiectasis, honeycomb” and the “Pathology results (HE staining of lungs)” value ([2]; asiatic acid high, medium and low dose, 28 days, not dose dependent) was “light fibroplasias in alveoli pulmonis diaphragm, light lymphocyte infiltration and compensatory emphysema”. The Lung weight coefficient [2, 7] was 0.70, the “Lung Weight” value [2, 7] was 2.17 g and the Lung weight coefficient [2, 8] was 0.66. The “Lung Weight” value [2, 8] was 1.97 g, the Lung weight coefficient [2, 9] was 0.66 and the “Lung Weight” value [2, 9] was 2.02 g. The “HX content (hydroxyproline content in lung) X ± SD” value ([2]; first experiment, high dose 27 mg/kg po * 28) was 2.39 ± 0.44 mg/g, the “HX content (hydroxyproline content in lung) X ± SD” value ([2]; first experiment, low dose 3 mg/kg po * 28) was 3.43 ± 0.62 mg/g and the “HX content (hydroxyproline content in lung) X ± SD” value ([2]; first experiment, medium dose 9 mg/kg po * 28) was 2.36 ± 0.87 mg/g. For the same compound, the “CT: therapeutic effect in mid to late phase of the disease” value ([2]; mid to late phase) was “can significantly relive the extent of fibrosis in lungs”, the “Overall effect on lung fibrosis” value ([2]; rats receiving bleomycin induction, direct administration) was “can relieve lung fibrosis” and the Lung weight coefficient [2, 10] was 0.65. The “Lung Weight” value [2, 10] was 2.26 g, the Lung weight coefficient [2, 11] was 0.76 and the “Lung Weight” value [2, 11] was 2.34 g. The Lung weight coefficient [2, 12] was 0.70, the “Lung Weight” value [2, 12] was 2.21 g and the “HX content (hydroxyproline content in lung) X ± SD” value ([2]; second experiment, high dose 27 mg/kg po * 28) was 2.37 ± 0.41 mg/g. For the same compound, the “HX content (hydroxyproline content in lung) X ± SD” value ([2]; second experiment, low dose 3 mg/kg po * 28) was 3.41 ± 0.60 mg/g, the “HX content (hydroxyproline content in lung) X ± SD” value ([2]; second experiment, medium dose 9 mg/kg po * 28) was 2.36 ± 0.79 mg/g and the Lung weight coefficient [2, 13] was 0.70. The “Lung Weight” value [2, 13] was 2.17 g, the Lung weight coefficient [2, 14] was 0.66 and the “Lung Weight” value [2, 14] was 1.97 g. The Lung weight coefficient [2, 15] was 0.66, the “Lung Weight” value [2, 15] was 2.02 g and the “HX content (hydroxyproline content in lung) X ± SD” value ([2]; third experiment, high dose 27 mg/kg po * 28) was 2.30 ± 0.46 mg/g. The “HX content (hydroxyproline content in lung) X ± SD” value ([2]; third experiment, low dose 3 mg/kg po * 28) was 3.42 ± 0.57 mg/g, the “HX content (hydroxyproline content in lung) X ± SD” value ([2]; third experiment, medium dose 9 mg/kg po * 28) was 2.71 ± 0.44 mg/g and the Solubility [3] was “insoluble in water”. The Tissue accumulation [4] was “no apparent tissue accumulation”.
In the case of C[C@@H]1C[C@H]2[C@@H]3CCC4=CC(=O)C=C[C@]4(C)[C@@]3(F)[C@@H](O)C[C@]2(C)[C@@]1(O)C(=O)CO [Dexmethasone, Dexamethasone, reference compound], the CT scan findings ([5]; dexamethasone 0.6 mg/kg) is reported as “ground glass infiltration and fibrotic streaks were found in both lungs”, the “ET-1 (cytokine content)” value ([5]; dexamethasone 0.6 mg/kg) is reported as 257.86 ± 20.81 and the “Hyaluronic Acid (serum ECM)” value ([5]; dexamethasone 0.6 mg/kg) is reported as 232.97 ± 101.24. The “Laminin (serum ECM)” value ([5]; dexamethasone 0.6 mg/kg) was 48.41 ± 14.12, the “PIIIP (collagen content comparison, serum ECM)” value ([5]; dexamethasone 0.6 mg/kg) was 19.59 ± 6.24 and the Pathology ([5]; dexamethasone 0.6 mg/kg) was “a light inflammatory reaction caused by lymphocyte was found with inflammatory cell infiltration seen in the alveoli pulmonis”. The “TNF-α (cytokine content)” value ([5]; dexamethasone 0.6 mg/kg) was 6.50 ± 0.73, the “TNF-[…] (cytokine content)” value ([5]; dexamethasone 0.6 mg/kg) was 0.075 ± 0.010 and the “Type IV (collagen content comparison, serum ECM)” value ([5]; dexamethasone 0.6 mg/kg) was 10.71 ± 4.94. For the same compound, the HXP content [5, 16] was 19.32 ± 4.35 mg/g, the Lung weight coefficient [5, 16] was 0.72% and the “Lung CT scanning results” value ([2]; dexmethasone 0.6 mg/kg po) was “Light hyperplasy in lung striation. Light consolidation”. For the same compound, the “HX content (hydroxyproline content in lung) X ± SD” value ([2]; first experiment, 0.6 mg/kg po * 28) was 2.34 ± 9.54 mg/g, the Lung weight coefficient [2, 17] was 0.72 and the “Lung Weight” value [2, 17] was 1.90 g. The “HX content (hydroxyproline content in lung) X ± SD” value ([2]; second experiment, 0.6 mg/kg po * 28) was 2.41 ± 0.45 mg/g, the Lung weight coefficient [2, 18] was 0.69 and the “Lung Weight” value [2, 18] was 1.62 g. The “HX content (hydroxyproline content in lung) X ± SD” value ([2]; third experiment, 0.6 mg/kg po * 28) was 2.47 ± 0.45 mg/g, the Lung weight coefficient [2, 19] was 0.72 and the “Lung Weight” value [2, 19] was 1.90 g. The CT scan findings ([6]; dexamethasone group) was “mild ground glass infiltration and fibrotic streaks in the right lung with right base atelectasis”, the HXP content ([6]; dexamethasone treated) was 36.42 ± 2.74 mg/g and the “Hyaluronic Acid (serum ECM)” value ([6]; dexamethasone treated) was 195.12 ± 55.89. For the same compound, the “Laminin (serum ECM)” value ([6]; dexamethasone treated) was 47.91 ± 8.04, the Lung weight coefficient ([6]; dexamethasone treated) was 0.42% and the “PIIIP (collagen content comparison, serum ECM)” value ([6]; dexamethasone treated) was 14.51 ± 5.61. The “Type IV (collagen content comparison, serum ECM)” value ([6]; dexamethasone treated) was 12.65 ± 2.87.
